Activity calls are given as the source filed them. No cut-off for these calls is given here.
Assays:
[1] = biological target: T1, Adrenergic receptor alpha-1 (Rattus norvegicus, UniProt P15823+P23944+P43140); experiment: Displacement [3H]prazosin from alpha1 adrenergic receptor in rat brain cortex homogenates after 30 mins by liquid scintillation counting; assay type: tissue-based
T1 sequence (P15823 whole entry): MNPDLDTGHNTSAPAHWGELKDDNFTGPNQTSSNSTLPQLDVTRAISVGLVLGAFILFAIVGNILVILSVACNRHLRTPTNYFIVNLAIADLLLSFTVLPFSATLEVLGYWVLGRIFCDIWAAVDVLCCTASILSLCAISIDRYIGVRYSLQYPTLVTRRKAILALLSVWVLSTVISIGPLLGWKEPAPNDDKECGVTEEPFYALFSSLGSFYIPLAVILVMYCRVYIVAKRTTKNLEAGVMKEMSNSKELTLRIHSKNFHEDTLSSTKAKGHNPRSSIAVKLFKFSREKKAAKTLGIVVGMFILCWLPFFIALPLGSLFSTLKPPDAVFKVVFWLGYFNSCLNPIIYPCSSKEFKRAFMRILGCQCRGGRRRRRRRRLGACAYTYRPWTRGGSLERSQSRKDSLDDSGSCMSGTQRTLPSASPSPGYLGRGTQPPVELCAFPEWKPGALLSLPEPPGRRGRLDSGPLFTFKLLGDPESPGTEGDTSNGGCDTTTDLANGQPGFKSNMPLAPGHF
T1 sequence (P23944 whole entry): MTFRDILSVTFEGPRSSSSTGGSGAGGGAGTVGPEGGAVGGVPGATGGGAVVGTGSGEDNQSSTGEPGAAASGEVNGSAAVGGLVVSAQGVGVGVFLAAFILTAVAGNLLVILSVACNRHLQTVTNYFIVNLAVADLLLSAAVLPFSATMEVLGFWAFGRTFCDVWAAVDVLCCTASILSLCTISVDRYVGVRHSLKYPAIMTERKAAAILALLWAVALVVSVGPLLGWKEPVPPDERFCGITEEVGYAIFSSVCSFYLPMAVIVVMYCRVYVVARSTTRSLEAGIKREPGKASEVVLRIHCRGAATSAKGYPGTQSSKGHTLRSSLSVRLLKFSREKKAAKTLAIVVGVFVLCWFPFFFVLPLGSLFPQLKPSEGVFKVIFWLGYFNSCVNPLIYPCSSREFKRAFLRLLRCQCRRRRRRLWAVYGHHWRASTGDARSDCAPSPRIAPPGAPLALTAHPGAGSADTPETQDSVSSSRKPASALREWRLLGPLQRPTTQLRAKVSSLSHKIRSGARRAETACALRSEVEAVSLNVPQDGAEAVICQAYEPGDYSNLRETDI
T1 sequence (P43140 whole entry): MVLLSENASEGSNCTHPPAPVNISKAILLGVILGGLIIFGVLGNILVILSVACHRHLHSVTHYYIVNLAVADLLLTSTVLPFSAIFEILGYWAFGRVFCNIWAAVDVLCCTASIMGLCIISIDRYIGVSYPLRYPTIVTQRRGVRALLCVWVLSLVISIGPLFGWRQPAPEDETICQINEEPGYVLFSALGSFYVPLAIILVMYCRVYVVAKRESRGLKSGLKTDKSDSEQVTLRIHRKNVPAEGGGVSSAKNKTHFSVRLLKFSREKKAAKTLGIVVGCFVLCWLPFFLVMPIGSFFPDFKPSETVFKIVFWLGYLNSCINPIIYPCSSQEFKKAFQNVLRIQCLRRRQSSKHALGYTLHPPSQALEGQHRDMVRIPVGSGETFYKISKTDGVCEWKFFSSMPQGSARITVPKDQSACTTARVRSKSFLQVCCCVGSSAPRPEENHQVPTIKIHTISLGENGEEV

PC-3 [2] = experiment: Cell cycle arrest in human PC3 cells assessed as accumulation at G1 phase at 15 uM after 72 hrs using propidium iodide staining by flow cytometry (reference value: 42.19 %); assay type: functional
PC-3 [3] = experiment: Cell cycle arrest in human PC3 cells assessed as accumulation at G2 phase at 15 uM after 48 hrs using propidium iodide staining by flow cytometry (reference value: 13.36 %); assay type: functional
D(1A) dopamine receptor = D(1A) dopamine receptor (Rattus norvegicus, UniProt P18901); experiment: Displacement of [3H]SCH 23390 from dopamine D1 receptor in rat corpora striatum homogenates after 15 mins by liquid scintillation counting
Chain of D(1A) dopamine receptor (P18901 whole entry): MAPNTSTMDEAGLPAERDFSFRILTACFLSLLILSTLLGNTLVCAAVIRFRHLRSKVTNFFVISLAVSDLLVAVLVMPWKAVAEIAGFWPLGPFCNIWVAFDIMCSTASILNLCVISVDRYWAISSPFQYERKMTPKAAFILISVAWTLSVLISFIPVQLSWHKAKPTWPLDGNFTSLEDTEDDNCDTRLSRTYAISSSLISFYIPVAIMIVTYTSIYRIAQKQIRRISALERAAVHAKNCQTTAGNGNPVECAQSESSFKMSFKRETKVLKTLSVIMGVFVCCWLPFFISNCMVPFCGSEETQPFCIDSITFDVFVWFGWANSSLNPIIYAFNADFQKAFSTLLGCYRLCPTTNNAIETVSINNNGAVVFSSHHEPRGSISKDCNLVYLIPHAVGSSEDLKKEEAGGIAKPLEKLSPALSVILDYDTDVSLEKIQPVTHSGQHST

PC-3 [4] = experiment: Cell cycle arrest in human PC3 cells assessed as accumulation at S phase at 15 uM after 24 hrs using propidium iodide staining by flow cytometry (reference value: 34.84 %); assay type: functional
PC-3 [5] = experiment: Cell cycle arrest in human PC3 cells assessed as accumulation at S phase at 15 uM after 72 hrs using propidium iodide staining by flow cytometry (reference value: 37.73 %); assay type: functional
PC-3 [6] = experiment: Induction of apoptosis in human PC3 cells at 15 uM after 24 hrs using propidium iodide staining by flow cytometry (reference value: 1.27 %); assay type: functional
PC-3 [7] = experiment: Cell cycle arrest in human PC3 cells assessed as accumulation at G2 phase at 15 uM after 72 hrs using propidium iodide staining by flow cytometry (reference value: 20.18 %); assay type: functional
PC-3 [8] = experiment: Cell cycle arrest in human PC3 cells assessed as accumulation at G1 phase at 15 uM after 24 hrs using propidium iodide staining by flow cytometry (reference value: 46.97 %); assay type: functional
PC-3 [9] = experiment: Cell cycle arrest in human PC3 cells assessed as accumulation at G2 phase at 15 uM after 24 hrs using propidium iodide staining by flow cytometry (reference value: 18.19 %); assay type: functional
PC-3 [10] = experiment: Induction of apoptosis in human PC3 cells at 15 uM after 48 hrs using propidium iodide staining by flow cytometry (reference value: 0.84 %); assay type: functional
PC-3 [11] = experiment: Cell cycle arrest in human PC3 cells assessed as accumulation at G1 phase at 15 uM after 48 hrs using propidium iodide staining by flow cytometry (reference value: 54.14 %); assay type: functional
D(2) dopamine receptor = D(2) dopamine receptor (Rattus norvegicus, UniProt P61169); experiment: Displacement of [3H]spiperone from dopamine D2 receptor in rat corpora striatum homogenates after 15 mins by liquid scintillation counting
Chain of D(2) dopamine receptor (P61169 whole entry): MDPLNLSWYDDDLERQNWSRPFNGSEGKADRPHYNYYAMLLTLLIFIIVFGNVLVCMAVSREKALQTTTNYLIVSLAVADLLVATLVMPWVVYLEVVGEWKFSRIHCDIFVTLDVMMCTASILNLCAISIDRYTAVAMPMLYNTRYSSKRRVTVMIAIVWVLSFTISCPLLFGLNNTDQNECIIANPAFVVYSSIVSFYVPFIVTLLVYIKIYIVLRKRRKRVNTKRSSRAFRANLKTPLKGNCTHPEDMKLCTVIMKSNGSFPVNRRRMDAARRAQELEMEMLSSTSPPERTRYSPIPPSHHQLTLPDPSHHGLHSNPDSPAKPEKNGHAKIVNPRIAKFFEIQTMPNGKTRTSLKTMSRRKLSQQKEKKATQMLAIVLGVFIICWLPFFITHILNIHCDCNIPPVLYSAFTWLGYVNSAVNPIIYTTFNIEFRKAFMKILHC

PC-3 [12] = experiment: Cell cycle arrest in human PC3 cells assessed as accumulation at S phase at 15 uM after 48 hrs using propidium iodide staining by flow cytometry (reference value: 38.16 %); assay type: functional
PC-3 [13] = experiment: Induction of apoptosis in human PC3 cells at 15 uM after 72 hrs using propidium iodide staining by flow cytometry (reference value: 1.79 %); assay type: functional
PC-3 [14] = experiment: Induction of apoptosis human PC3 cells assessed as externalization of phosphatidylserine on the outer layer of plasma membrane at 15 uM after 24 to 48 hrs using Annexin-V-FITC staining by flow cytometry; assay type: functional, cell-based

| SMILES | Ki [1] | Ki (D(1A) dopamine receptor) | Ki (D(2) dopamine receptor) | Activity (PC-3 [2]) | Activity (PC-3 [3]) | Activity (PC-3 [4]) | Activity (PC-3 [5]) | Activity (PC-3 [6]) | Activity (PC-3 [7]) | Activity (PC-3 [8]) | Activity (PC-3 [9]) | Activity (PC-3 [10]) | Activity (PC-3 [11]) | Activity (PC-3 [12]) | Activity (PC-3 [13]) | Activity (PC-3 [14]) |
| --- | --- | --- | --- | --- | --- | --- | --- | --- | --- | --- | --- | --- | --- | --- | --- | --- |
| O=C1C2C3C=CC(C3)C2C(=O)N1OCCCN1CCN(c2cccc3ccccc23)CC1 (configuration not stated) | > 10 µM | > 10 µM | 0.263 µM |  |  |  |  |  |  |  |  |  |  |  |  |  |
| N#C/N=C(\NCCCN1CCN(c2cccc3ccccc23)CC1)c1ccccn1 | > 10 µM | > 10 µM | > 10 µM |  |  |  |  |  |  |  |  |  |  |  |  |  |
| O=c1c2ccccc2nnn1OCCCN1CCN(c2cccc3ccccc23)CC1 | 0.8 µM | > 10 µM | 0.0854 µM |  |  |  |  |  |  |  |  |  |  |  |  |  |

The next lines start with results.

| Ki [1] | Ki (D(1A) dopamine receptor) | Ki (D(2) dopamine receptor) | SMILES | Activity (PC-3 [2]) | Activity (PC-3 [3]) | Activity (PC-3 [4]) | Activity (PC-3 [5]) | Activity (PC-3 [6]) | Activity (PC-3 [7]) | Activity (PC-3 [8]) | Activity (PC-3 [9]) | Activity (PC-3 [10]) | Activity (PC-3 [11]) | Activity (PC-3 [12]) | Activity (PC-3 [13]) | Activity (PC-3 [14]) |
| --- | --- | --- | --- | --- | --- | --- | --- | --- | --- | --- | --- | --- | --- | --- | --- | --- |
| 0.112 µM | > 10 µM | > 10 µM | O=c1c2ccccc2nnn1CCN1CCN(c2cccc3ccccc23)CC1 | 45.86% | 24.08% | 37.45% | 29.95% | 2.17% | 24.19% | 38.38% | 24.17% | 2.79% | 41.36% | 34.56% | 2.17% | Active |
| > 10 µM | > 10 µM | > 10 µM | O=C1C2C3C=CC(C3)C2C(=O)N1OCCN1CCN(c2cccc3ccccc23)CC1 (configuration not stated) |  |  |  |  |  |  |  |  |  |  |  |  |  |
| 0.562 µM | > 10 µM | > 10 µM | O=c1c2ccccc2nnn1CCCN1CCN(c2cccc3ccccc23)CC1 | 43.11% | 22.29% | 35.15% | 28.24% | 1.71% | 28.65% | 37.55% | 27.3% | 2.12% | 44.13% | 33.58% | 2.25% | Active |
| > 10 µM | > 10 µM | > 10 µM | O=c1c2ccccc2nnn1OCCN1CCN(c2cccc3ccccc23)CC1 |  |  |  |  |  |  |  |  |  |  |  |  |  |
